According to paper PMC6240685, “Strong Inhibitory Effect, Low Cytotoxicity and High Plasma Stability of Steroidal Inhibitors of N-Methyl-D-Aspartate Receptors With C-3 Amide Structural Motif” (Frontiers in Pharmacology, 2018):
Where a name gives a salt, the structure may show the parent alone. Read-outs that look alike come from different tables or passages of the source.

Legend:
[1] = Plasma stability, human plasma; type: in vitro ADME
Experimental: Then, 37.8 μL of stock solution was added to 1400 μL of human plasma, maintained at 37°C. Aliquots (50 μL) withdrawn at 0, 1, 4, 8, and 24 h were analyzed by HPLC. […] The supernatant was transferred to an autosampler vial and 1 μL was injected onto LC-MS system. The samples were analyzed with an Agilent 1260 HPLC (Agilent Technologies) coupled to ESI-TOF Agilent 6530 (Agilent Technologies) with Agilent Jet Stream Technology. Samples were separated on a Waters ACQUITY UPLC CSH Phenyl-Hexyl (100 × 2.1, 130 Å, 1.7 μm) at a flow rate 0.3 ml/min. […] The mass spectrometry instrument was operated in a negative ion mode with a voltage of +3.00 kV applied to the capillary. The temperature, the flow rate of the nitrogen drying gas, the pressure of the nitrogen nebulizing gas, and the flow rate of the sheath gas were set at 325°C, 10 l/min, 40 psi, 390°C, and 11 l/min, respectively. Results are represented as a percentage of a compound remaining in spiked human plasma.

GluN1/GluN2B receptors [2] = biological target: T1, GluN1/GluN2B receptors (Rattus norvegicus, UniProt P35439+Q00960); test: Patch-clamp inhibition of glutamate responses of GluN1/GluN2B receptors in transfected HEK293 cells; type: cell-based
T1 construct: expressed in transfected cells; host or cells: HEK293

HepG2 cells [3] = test: ROS induction (CM-H2DCFDA); type: cell-based
Experimental: (§1) (A) Hepatotoxicity provoked by compound 4 was assessed after 72 h incubation of HepG2 cells in low glucose medium (5 mM) in the presence of compound 4 (0.25–100 μM). (B) Mitochondrial toxicity was determined after 24 h incubation of HepG2 cells in either high glucose medium (25 mM) or galactose medium (10 mM) in the presence of compound 4 (2.5–150 μM). Cell viabilities were recorded in triplicates in three independent experiments and expressed as percentage of vehicle control ± SD and IC50 values were determined by GraphPad Prism software using following equation: Y = Bottom + (Top–Bottom)/(1 + 10ˆ((LogIC50-X)^∗HillSlope)), where IC50 is the concentration of compound 4 that inhibits cell viability half way between Bottom and Top plateaus, X is compound 4 concentration and HillSlope describes the steepness of the family of curves. […] (C) Concentration-dependent effect on ROS level. HepG2 cells were treated with compound 4 (0.25–100 μM) for 72 h, and then the intracellular level of total ROS in relative fluorescence units (RFU) was detected. The data are presented as the mean ± SD for at least three independent experiments and each experiment was carried out in triplicate. Final concentration of DMSO in samples was 1%. […] Single asterisks (^∗) indicate a significant difference (P < 0.05) compared to 1% DMSO control (one-way ANOVA with Dunnett’s post-test).
The effect of neurosteroids on oxidative stress was determined using general oxidative stress indicator CM-H2DCFDA (Thermo Fisher Scientific, Waltham, MA, United States) according to the manufacturer’s instructions. Briefly HepG2 cells were seeded in a 96-well plate at a density of 13,500 cells per well. After 24 h, the tested neurosteroids were added to the culture media and incubated for 72 h. Subsequently, cells were washed with HBSS, treated with 100 μL of 1 μM CM-H2DCF-DA solution in HBSS and incubated for 1 h in the dark at 37°C. Finally, cells were washed three times with HBSS and the fluorescence was measured using 495 excitation and 527 emission in fluorescence microplate reader (Cytation 3, Winooski, VT, United States). IC50 index values were determined by GraphPad Prism version 5.00 for Windows (GraphPad Software, La Jolla, CA, United States).

HepG2 cells [4] = test: Mitotoxicity, XTT viability in glucose vs galactose medium; details: for IC50: Homo sapiens, HepG2, 24 h; for Glu/Gal index (fold change): 24 h, HepG2, index higher than 3 indicates potential mitochondrial toxicity
Experimental: as §1
(§2) HepG2 cells (ATCC®, United Kingdom) were grown in complete Minimal Essential Medium (EMEM) (5.5 mM glucose) medium, supplemented with 10% (v/v) fetal calf serum, 200 μg/mL of streptomycin, 200 U/mL of penicillin G and 4 mM glutamine. They were cultured under a humidified atmosphere containing 5% CO2 at 37°C.
(§3) The cytotoxicity of the tested compounds was assessed with use of XTT cell proliferation kit II (Roche Diagnostics GmbH, Mannheim, Germany) according to the manufacturer’s instructions. Briefly HepG2 cells were seeded in a 96-well plate at a density of 22,000 cells per well. After 24 h, the tested neurosteroids in a concentration range from 0.5 to 200 μM were added to the culture media and incubated for 72 h before the XTT dye was added. Mitochondrial toxicity was assessed in HepG2 cells using glucose and galactose conditioned media and XTT assay as a read out for cell viability. In brief, cells were seeded onto 96 well, clear bottom tissue culture plates at a density of 22,000 cells/well and left overnight to attach. Six hours prior to the neurosteroids treatment the media was replaced with 100 μL DMEM media containing either glucose (25 mM glucose; 1 mM pyruvate; 2 mM glutamine, 10% FBS) or galactose (10 mM galactose, 1 mM pyruvate, 6 mM glutamine, 10% FBS). After that, the tested neurosteroids in a concentration range from 0.5 to 200 μM were added in the fresh appropriate assay medium (glucose or galactose) and incubated for 24 h before the XTT dye was added. The XTT absorbance was recorded at 495 nm after 1 h incubation with the dye. Compounds were dissolved in DMSO to produce the stock solutions at the concentration of 10 mM, with exception of PAG, 1, 6 (5 mM), and 11 (2.5 mM). Results were expressed as percentages of change in viability compared to appropriate DMSO control. IC50 values were determined by GraphPad Prism version 5.00 for Windows (GraphPad Software, La Jolla, CA, United States). All experiments were done in triplicates in three independent experiments to check the reproducibility.

[5] = Plasma stability, rat plasma; type: in vitro ADME
HepG2 cells [6] = test: Hepatotoxicity, XTT viability after 72 h; type: cell-based; details: Homo sapiens, read-out: Hepatotoxicity IC50, 5.5 mM glucose
Experimental: Then, the cell viability (XTT assay) and reactive oxygen species (ROS) induction were evaluated.
as §1, §2, §3

[7] = parameters: method as in Holubova et al., 2014; details: ref Holubova et al., 2014; cited from earlier work
[8] = parameters: method as in Kleteckova et al., 2014; details: induced by endothelin-1, immature rats; ref Kleteckova et al., 2014; cited from earlier work
[9] = parameters: method as in Rambousek et al., 2011; details: after bilateral NMDA-induced lesions to the hippocampus; ref Rambousek et al., 2011; cited from earlier work
[10] = parameters: method as in Rambousek et al., 2011; details: ref Rambousek et al., 2011, cited from earlier work
GluN1/GluN2D receptors = biological target: T2, GluN1/GluN2D receptors (Rattus norvegicus, UniProt P35439+Q62645); parameters: method as in Petrovic et al., 2005; details: ref Petrovic et al., 2005; cited from earlier work
T2 construct: expressed in transfected cells; host or cells: HEK293

GluN1/GluN2A receptors = biological target: T3, GluN1/GluN2A receptors (Rattus norvegicus, UniProt P35439+Q00959); parameters: method as in Petrovic et al., 2005; details: ref Petrovic et al., 2005; cited from earlier work
T3 construct: expressed in transfected cells; host or cells: HEK293

GluN1/GluN2B receptors [11] = biological target: T1, GluN1/GluN2B receptors; parameters: method as in Petrovic et al., 2005; details: ref Petrovic et al., 2005; cited from earlier work
GluN1/GluN2C receptors = biological target: T4, GluN1/GluN2C receptors (Rattus norvegicus, UniProt P35439+Q00961); parameters: method as in Petrovic et al., 2005; details: ref Petrovic et al., 2005; cited from earlier work
T4 construct: expressed in transfected cells; host or cells: HEK293

[12] = as repeated in Table 2, read-out: IC50
[13] = current responses to glutamate, HEK293, IC50 from single steroid dose, Hill coefficient fixed at 1.2, read-out: IC50 ± SD
[14] = Homo sapiens, HepG2, 72 h; read-out: ROS induction EC50
[15] = read-out: Mitotoxicity IC50, 10 mM galactose
[16] = read-out: Mitotoxicity IC50, 25 mM glucose
[17] = Homo sapiens, HepG2, 72 h, read-out: ROS induction EC50

T1 sequence (Q00960 27-1482, other chains not shown): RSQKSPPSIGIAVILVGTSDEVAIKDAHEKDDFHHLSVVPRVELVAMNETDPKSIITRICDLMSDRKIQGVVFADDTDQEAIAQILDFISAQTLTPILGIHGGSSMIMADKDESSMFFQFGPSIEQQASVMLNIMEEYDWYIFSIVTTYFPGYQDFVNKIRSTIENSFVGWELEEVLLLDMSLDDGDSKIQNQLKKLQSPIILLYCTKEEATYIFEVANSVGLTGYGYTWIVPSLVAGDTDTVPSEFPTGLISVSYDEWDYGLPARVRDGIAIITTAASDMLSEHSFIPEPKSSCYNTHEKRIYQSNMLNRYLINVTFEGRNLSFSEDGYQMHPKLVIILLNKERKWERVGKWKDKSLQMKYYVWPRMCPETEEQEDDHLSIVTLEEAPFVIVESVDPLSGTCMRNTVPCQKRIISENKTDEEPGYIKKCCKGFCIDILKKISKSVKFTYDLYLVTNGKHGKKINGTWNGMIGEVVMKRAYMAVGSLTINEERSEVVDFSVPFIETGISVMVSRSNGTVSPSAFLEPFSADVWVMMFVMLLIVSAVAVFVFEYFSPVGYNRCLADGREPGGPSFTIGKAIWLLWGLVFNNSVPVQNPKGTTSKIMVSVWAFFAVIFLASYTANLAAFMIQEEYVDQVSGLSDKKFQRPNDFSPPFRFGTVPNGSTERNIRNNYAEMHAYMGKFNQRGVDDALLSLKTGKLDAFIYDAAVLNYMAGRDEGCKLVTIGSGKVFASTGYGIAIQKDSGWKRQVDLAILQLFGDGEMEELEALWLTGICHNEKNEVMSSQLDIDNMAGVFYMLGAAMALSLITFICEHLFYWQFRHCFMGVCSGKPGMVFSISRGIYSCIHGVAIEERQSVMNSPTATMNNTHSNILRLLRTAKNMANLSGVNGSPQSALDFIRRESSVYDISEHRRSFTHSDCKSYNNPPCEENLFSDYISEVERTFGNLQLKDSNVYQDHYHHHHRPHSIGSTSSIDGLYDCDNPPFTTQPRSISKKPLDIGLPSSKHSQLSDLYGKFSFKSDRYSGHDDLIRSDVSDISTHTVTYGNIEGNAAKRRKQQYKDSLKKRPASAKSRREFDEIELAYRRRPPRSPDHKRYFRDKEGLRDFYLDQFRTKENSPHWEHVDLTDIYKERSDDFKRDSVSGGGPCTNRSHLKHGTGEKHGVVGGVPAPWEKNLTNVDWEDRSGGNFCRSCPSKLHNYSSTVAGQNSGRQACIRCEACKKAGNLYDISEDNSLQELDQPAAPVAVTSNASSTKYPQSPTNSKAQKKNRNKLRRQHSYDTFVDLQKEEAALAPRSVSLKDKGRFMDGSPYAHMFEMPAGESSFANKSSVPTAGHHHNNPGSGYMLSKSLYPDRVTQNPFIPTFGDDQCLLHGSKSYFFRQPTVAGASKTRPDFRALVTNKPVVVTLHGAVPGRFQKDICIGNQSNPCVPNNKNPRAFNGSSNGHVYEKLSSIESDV
T3 sequence (Q00959 23-1464, other chains not shown): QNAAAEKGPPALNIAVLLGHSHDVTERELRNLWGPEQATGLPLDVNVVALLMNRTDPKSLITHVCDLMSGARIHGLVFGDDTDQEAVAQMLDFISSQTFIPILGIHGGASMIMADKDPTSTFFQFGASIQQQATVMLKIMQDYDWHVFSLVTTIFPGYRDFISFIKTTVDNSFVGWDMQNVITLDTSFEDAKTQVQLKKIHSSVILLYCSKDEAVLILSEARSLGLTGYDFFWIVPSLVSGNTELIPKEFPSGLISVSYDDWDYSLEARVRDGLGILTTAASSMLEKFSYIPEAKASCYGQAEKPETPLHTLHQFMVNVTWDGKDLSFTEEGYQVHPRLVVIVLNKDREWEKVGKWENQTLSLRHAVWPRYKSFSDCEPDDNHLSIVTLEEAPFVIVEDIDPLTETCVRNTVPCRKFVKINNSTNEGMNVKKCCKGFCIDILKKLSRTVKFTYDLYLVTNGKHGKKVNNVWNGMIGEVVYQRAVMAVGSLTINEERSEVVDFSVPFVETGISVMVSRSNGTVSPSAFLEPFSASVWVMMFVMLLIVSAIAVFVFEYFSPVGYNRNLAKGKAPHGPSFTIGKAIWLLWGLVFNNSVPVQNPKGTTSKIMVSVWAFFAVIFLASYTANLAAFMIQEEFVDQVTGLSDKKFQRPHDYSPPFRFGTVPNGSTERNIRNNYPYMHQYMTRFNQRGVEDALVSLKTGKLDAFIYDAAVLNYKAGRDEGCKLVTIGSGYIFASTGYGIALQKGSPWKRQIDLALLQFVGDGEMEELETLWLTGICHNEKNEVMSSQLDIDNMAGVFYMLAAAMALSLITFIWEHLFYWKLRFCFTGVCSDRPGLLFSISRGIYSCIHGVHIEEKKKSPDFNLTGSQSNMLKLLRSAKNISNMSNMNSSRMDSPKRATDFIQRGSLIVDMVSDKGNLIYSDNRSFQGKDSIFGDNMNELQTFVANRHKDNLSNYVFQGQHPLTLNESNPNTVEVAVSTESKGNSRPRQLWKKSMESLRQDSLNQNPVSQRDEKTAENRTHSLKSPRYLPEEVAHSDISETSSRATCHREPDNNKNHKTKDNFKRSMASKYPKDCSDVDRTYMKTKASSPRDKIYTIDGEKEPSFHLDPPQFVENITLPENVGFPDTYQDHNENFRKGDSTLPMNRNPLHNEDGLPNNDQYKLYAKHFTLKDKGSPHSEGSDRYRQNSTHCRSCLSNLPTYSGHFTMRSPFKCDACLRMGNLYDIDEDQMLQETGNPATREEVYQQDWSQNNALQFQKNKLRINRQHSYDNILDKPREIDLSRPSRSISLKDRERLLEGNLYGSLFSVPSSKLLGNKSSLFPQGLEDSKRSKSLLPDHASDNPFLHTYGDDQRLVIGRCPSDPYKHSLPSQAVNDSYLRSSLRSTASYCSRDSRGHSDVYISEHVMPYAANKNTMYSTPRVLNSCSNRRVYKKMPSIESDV
T2 sequence (Q62645 28-1323, other chains not shown): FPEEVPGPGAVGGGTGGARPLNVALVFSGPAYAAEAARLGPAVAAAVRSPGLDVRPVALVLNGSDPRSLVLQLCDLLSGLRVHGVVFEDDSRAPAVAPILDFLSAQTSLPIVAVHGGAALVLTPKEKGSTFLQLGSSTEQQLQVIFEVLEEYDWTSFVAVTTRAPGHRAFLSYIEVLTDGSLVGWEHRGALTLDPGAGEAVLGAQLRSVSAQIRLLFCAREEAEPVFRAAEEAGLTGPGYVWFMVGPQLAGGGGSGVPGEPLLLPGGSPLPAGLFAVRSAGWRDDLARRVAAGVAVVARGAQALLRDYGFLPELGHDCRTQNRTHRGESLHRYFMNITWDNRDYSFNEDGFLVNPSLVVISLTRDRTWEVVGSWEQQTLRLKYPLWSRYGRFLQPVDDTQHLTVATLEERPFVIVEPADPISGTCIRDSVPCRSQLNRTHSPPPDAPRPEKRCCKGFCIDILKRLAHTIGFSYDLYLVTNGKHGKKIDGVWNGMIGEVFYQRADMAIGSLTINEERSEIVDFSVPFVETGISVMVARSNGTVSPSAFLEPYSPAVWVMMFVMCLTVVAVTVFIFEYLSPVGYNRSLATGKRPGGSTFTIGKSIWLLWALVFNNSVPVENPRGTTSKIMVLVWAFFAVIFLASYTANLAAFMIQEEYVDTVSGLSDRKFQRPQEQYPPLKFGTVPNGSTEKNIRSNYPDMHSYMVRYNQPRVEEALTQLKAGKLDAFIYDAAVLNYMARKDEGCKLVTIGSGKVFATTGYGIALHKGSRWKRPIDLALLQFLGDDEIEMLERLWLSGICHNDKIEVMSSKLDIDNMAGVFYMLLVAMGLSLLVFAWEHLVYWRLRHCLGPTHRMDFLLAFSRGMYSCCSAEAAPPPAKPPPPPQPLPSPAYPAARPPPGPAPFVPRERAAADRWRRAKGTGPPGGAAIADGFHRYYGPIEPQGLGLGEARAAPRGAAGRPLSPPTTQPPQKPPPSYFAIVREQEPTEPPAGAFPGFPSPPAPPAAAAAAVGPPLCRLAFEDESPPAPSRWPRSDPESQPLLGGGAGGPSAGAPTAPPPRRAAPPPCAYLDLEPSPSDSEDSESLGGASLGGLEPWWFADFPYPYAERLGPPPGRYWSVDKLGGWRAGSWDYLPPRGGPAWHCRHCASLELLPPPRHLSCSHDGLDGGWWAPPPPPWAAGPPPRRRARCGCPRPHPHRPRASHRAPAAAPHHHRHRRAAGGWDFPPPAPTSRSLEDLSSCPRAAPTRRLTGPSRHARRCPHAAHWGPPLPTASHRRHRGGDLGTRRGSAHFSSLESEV

SMILES | remaining at 8 h, 42.1 μg/mL ([1]; human, plasma) [%] | ΔGexp (GluN1/GluN2B receptors [2]) [kcal/mol] | IC50 (GluN1/GluN2B receptors [2]; [12]) [µM] | IC50 (GluN1/GluN2B receptors [2]; [13]) [µM] | EC50 (HepG2 cells [3]; [14]) [µM] | IC50 (HepG2 cells [4]; [15]) [µM] | IC50 (HepG2 cells [4]; [16]) [µM] | remaining at 8 h, 42.1 μg/mL ([5]; rat, plasma) [%] | melting point [°C] | IC50 (HepG2 cells [6]; 72 h, HepG2, 5.5 mM glucose) [µM] | Glu/Gal index (fold change) (HepG2 cells [4]) | IC50 (GluN1/GluN2B receptors [2]) [µM] | EC50 (HepG2 cells [3]; [17]) [µM] | IC50 (HepG2 cells [6]; HepG2, 72 h) [µM] | other results
CC(C)(C)OC(=O)N[C@@H](CC(=O)N[C@@H]1CC[C@@]2(C)[C@H](CC[C@H]3[C@@H]4CCC[C@@]4(C)CC[C@@H]32)C1)C(=O)O [Compound 9, (S)-2-((tert-butoxycarbonyl)amino)-4-(((3R,5R,8S,9S,10S,13S,14S)-10,13-dimethylhexadecahydro-1H-cyclopenta[a]phenanthren-3-yl)amino)-4-oxobutanoic acid] | 100 | -7.33 | 4.5 | 4.5 ± 0.6 | > 200 | > 200 | > 200 | 99 | 154 to 157 | > 200 |  |  |  |  | 
C[C@@]12CCC[C@H]1[C@@H]1CC[C@@H]3C[C@H](NC(=O)C[C@H](N)C(=O)O)CC[C@]3(C)[C@H]1CC2 [Compound 10, (S)-2-amino-4-(((3R,5R,8S,9S,10S,13S,14S)-10,13-dimethylhexadecahydro-1H-cyclopenta[a]phenanthren-3-yl)amino)-4-oxobutanoic acid] | 100 | -7.27 | 4.9 | 4.9 ± 1.7 | > 200 | > 200 | > 200 | 100 | 188 to 190 | > 200 |  |  |  |  | 
CC(C)(C)OC(=O)N[C@H](CCC(=O)N[C@@H]1CC[C@@]2(C)[C@H](CC[C@H]3[C@@H]4CCC[C@@]4(C)CC[C@@H]32)C1)C(=O)O [Compound 11, (R)-2-((tert-butoxycarbonyl)amino)-5-(((3R,5R,8S,9S,10S,13S,14S)-10,13-dimethylhexadecahydro-1H-cyclopenta[a]phenanthren-3-yl)amino)-5-oxopentanoic acid] | 100 | -7.49 | 3.4 | 3.4 ± 0.1 | 103 ± 8 | 193 ± 17 | 193 ± 13 | 100 | 125 to 128 | 91 ± 5 | 1 |  |  |  | 
CC(=O)C1CCC2C3CCC4CC(OC(=O)C(N)CCC(=O)O)CCC4(C)C3CCC12C (stereo not drawn) [PAG, pregnanolone glutamate, reference compound] |  |  |  |  |  | 58 ± 7 | 115 ± 13 |  |  |  | 1.97 | 51.7 ± 8.6 | 80 ± 11 | 62 ± 9 | behaviour in elevated plus maze (EPM) and forced swimming models [7]: anxiolytic-like and antidepressant-like properties; effect in focal cerebral ischemia model [8]: neuroprotective effect; behavioral performance in active allothetic place avoidance tasks (AAPA) [9]: improved behavioral performance; neuronal damage in the dentate gyrus and subiculum [9]: significantly ameliorated neuronal damage; remaining at 8 h, 42.1 μg/mL ([1]; human plasma, 8 h, 37°C, read-out: Plasma stability (% remaining after 8 h), Human): 94%; remaining at 8 h, 42.1 μg/mL ([5]; rat plasma, 8 h, 37°C, read-out: Plasma stability (% remaining after 8 h), Rat): 82%; excitotoxic damage of brain tissue and subsequent behavioral impairment ([10]; rats): reduced excitotoxic damage of brain tissue and subsequent behavioral impairment; psychotomimetic symptoms (hyperlocomotion, sensorimotor gating deficit) [10]: does not induce psychotomimetic symptoms
CC(=O)[C@H]1CC[C@H]2[C@@H]3CC[C@@H]4C[C@H](OS(=O)(=O)O)CC[C@]4(C)[C@H]3CC[C@]12C [PAS, 20-oxo-5β-pregnan-3α-yl sulfate, reference compound] |  |  |  |  |  | > 200 | > 200 |  |  |  |  | 24.6 ± 5.3 | > 200 | > 200 | IC50 (GluN1/GluN2D receptors): 30.1 µM; IC50 (GluN1/GluN2A receptors): 50 µM; IC50 (GluN1/GluN2B receptors [11]): 44.4 µM; IC50 (GluN1/GluN2C receptors): 25.6 µM
